Measured values published in article PMC4783973, “Synthetic Human TLR9-LRR11 Peptide Attenuates TLR9 Signaling by Binding to and thus Decreasing Internalization of CpG Oligodeoxynucleotides” (International Journal of Molecular Sciences, 2016).
Values belong to the compound of their own block, whether it stands above or below them.

How the values were obtained:
[1] = test system: IκBα and ERK1/2; settings: LPS-induced; ref [22]; cited from earlier work
Text: (§1) NF-κB is one of the most important inflammatory switches that comprise a series of transcription factors that regulate the expressions of various proinflammatory cytokines (IL-1, IL-6, IL-8 and TNF-α). NF-κB activation is depended on the degradation and phosphorylation of IκBα [12].

[2] = test system: LPS-induced cytokine release; settings: by decreasing both IκBα and ERK1/2 phosphorylation; ref [22]; cited from earlier work
[3] = test system: NF-κB p65 subunit; experiment: NF-κB activity assay, p65 subunit in nuclear extract of RAW264.7 cells (Trans^AM ELISA); type: cell-based; settings: peptide alone 4.5 μM; 4 h; n = 3
Experimental: Figure 3 Synthetic peptide (SP) inhibited NF-κB activation induced by CpG oligodeoxynucleotides (CpG ODN) in RAW264.7 cells. RAW264.7 cells (5.0 × 10^6 cells) grown in six-well plates were treated with 1.5 μM of ODN2006 (A) or ODN107 (B) preincubated with SP (0, 0.5, 1.5, or 4.5 μM) or unrelated peptide (URP) (4.5 μM) at 37 °C for 15 min. After incubation for 4 h, the cells were collected to extract nuclear proteins. The p65 subunit was detected using enzyme-linked immunosorbent assay (ELISA) kits. Data from one of three independent experiments are shown (n = 3). “*”, p < 0.05 vs. ODN2006 or ODN107; “**”, p < 0.01 vs. ODN2006 or ODN107; “#”, p > 0.05 vs. ODN2006 or ODN107.
(§2) The RAW264.7 cell line was purchased from American Type Culture Collection (ATCC, Manassas, VA, USA). Cells were cultured in DMEM (high glucose) medium containing 10% FCS in a 37 °C humidified atmosphere with 5% CO2. Cells diluted with 0.4% trypan blue in phosphate-buffered saline (PBS, 0.1 mM, pH 7.2–7.4) were counted using a hemocytometer.
RAW264.7 cells (5.0 × 10^6 cells) were placed in six-well plates for 4 h, and the supernatants were then replaced with fresh medium containing 1.5 μM of ODN2006 or ODN107 that had been preincubated with SP (0, 0.5, 1.5, or 4.5 μM) or URP (4.5 μM) at 37 °C for 15 min. After incubation for 4 h, the cells were collected to extract nuclear proteins. Equal amounts of each sample were used to detect the DNA binding activity of the NF-κB p65 subunit using Trans^AM NF-κB ELISA kits (Active Motif), according to the manufacturer’s instructions.

[4] = test system: RAW264.7 cells; experiment: FAM-2006 internalization within RAW264.7 cells, laser confocal scanning; type: cell-based; settings: peptide 4.5 μM preincubated with FAM-2006 1.5 μM; 30 min; n = 100
Experimental: Figure 5 Synthetic peptide (SP) inhibited ODN2006 internalization, as assessed using laser confocal scanning (Scale bar = 20 μm). RAW264.7 cells (1 × 10^6 cells) grown on 2-cm glass bottom dishes were treated with normal medium, 1.5 μM of FAM-labeled ODN2006 (FAM-2006) that had been preincubated with SP (0, 0.5, 1.5 or 4.5 μM) or unrelated peptide (URP; 4.5 μM) at 37 °C for 15 min. After treatment for 30 min, cells were washed with warm phosphate buffered saline (PBS) and fixed with 4% (m/v) paraformaldehyde, then stained with DAPI (4′,6-diamidino-2-phenylindole) (blue). The intracellular FAM-2006 (green) was observed using a laser confocal microscope (A); Mean fluorescence intensity (MFI) values (B) and the percentages of cells with FAM-2006 dots (green fluorescence) (C) were calculated by the ZENlite 2012 software (n = 100). “**”, p < 0.01; “#”, p > 0.05 vs. FAM-2006 alone.
as §2, with “hemocytometer. […]” for “hemocytometer.”

[5] = test system: ODN2006; experiment: IAsys biosensor binding to immobilized biotinylated ODN2006; settings: IAsys Plus biosensor; peptide 50 μM
Experimental: Figure 8 Synthetic peptide (SP) specifically binds ODN2006. (A) Binding curves generated by the IAsys biosensor. Biotinylated ODN2006 was immobilized on the surface of a streptavidin-coated cuvette. A series of concentration of SP (3.1, 6.3, 12.5, 25 or 50 μM) or unrelated peptide (URP) (50 μM) were added separately into the cuvette to generate the binding curves. Data were analyzed using FASTplot, and the dissociation equilibrium constant (KD) of SP was calculated using FASTfit; (B) Binding curves generated by the Biacore biosensor. Biotinylated ODN2006 was immobilized on a streptavidin-coated chip, and then a series of concentrations of SP (0.63, 1.25, 2.5, 5 or 10 μM) or URP (10 μM) were loaded separately to generate the binding curves. Data analysis and KD calculation were performed using the BIAevaluation software.
The affinity assay was firstly carried out using an IAsys Plus affinity biosensor (Thermo Labsystem, Altrincham, Cheshire, UK), according to our previous report. Biotinylated ODN2006 was immobilized on the surface of a streptavidin-coated cuvette according to the user manual. […] Binding curves were analyzed and visualized using FASTplot (Thermo), and the dissociation equilibrium constant (KD) of SP with ODN2006 was calculated using FASTfit (Thermo).

[6] = test system: RAW264.7 cells; experiment: TNF-α and IL-6 release from RAW264.7 cells, both cytokines stated together (ELISA); type: cell-based, mouse; settings: peptide alone, without CpG ODN; 6 h
Experimental: Figure 1 Synthetic peptide (SP) decreased TNF-α and IL-6 release from RAW264.7 cells treated with CpG oligodeoxynucleotides (CpG ODN). RAW264.7 cells (4.0 × 10^5 cells) grown in 48-well plates were treated with 1.5 μM of ODN2006 or ODN107 preincubated with SP (0, 0.5, 1.5, or 4.5 μM) or unrelated peptide (URP) (4.5 μM) at 37 °C for 15 min. After incubation for 6 h, the supernatants were collected to detect TNF-α (A) and IL-6 (B) using enzyme-linked immunosorbent assay (ELISA) kits. Data from one of three independent experiments are shown (n = 4). “*”, p < 0.05 vs. ODN2006 or ODN107; “**”, p < 0.01 vs. ODN2006 or ODN107; “#”, p > 0.05 vs. ODN2006 or ODN107.
Experiments were performed as described in Figure 1. The concentrations of ODN2006, LPS, PAM3 and SP were 1.5 μM, 20 ng/mL, 5 μg/mL and 1.5 μM, respectively. Data from one of three independent experiments are shown (n = 3).
as §2
RAW264.7 cells (4.0 × 10^5 cells) were incubated in 48-well plates for 4 h, and supernatants were replaced with 0.4 mL of serum-free DMEM medium containing 1.5 μM of ODN2006 or ODN107, which had been preincubated with 0, 0.5, 1.5 or 4.5 μM of SP or 4.5 μM of URP at 37 °C for 15 min. After incubation for 6 h, the supernatants were collected to detect TNF-α and IL-6 concentrations using corresponding ELISA kits (eBioscience).

[7] = test system: CpG ODN-induced cytokine release; settings: ref [19],[20]; cited from earlier work
Text: CpG ODN-induced diseases, such as sepsis and some autoimmune disorders, are triggered by uncontrolled release of proinflammatory cytokines, e.g., TNF-α and IL-6 [18]. […] Herein, we firstly evaluated the inhibitory effect of SP on CpG ODN-induced cytokine release in the cellular tests. Tw ... || NF-κB is one of the most important inflammatory switches that comprise a series of transcription factors that regulate the expressions of various proinflammatory cytokines (IL-1, IL-6, IL-8 and TNF-α). NF-κB activation is depended on the degradation and phosphorylation of IκBα [12].

[8] = test system: IκBα phosphorylation and NF-κB activation; settings: ref [19],[20]; cited from earlier work
Text: as §1

Compound: COc1ccc(/C=C/c2cc(O)cc(O)c2)cc1 [desoxyrhapontigenin]
- effect on IκBα and ERK1/2 phosphorylation [1]: decreasing both of IκBα and ERK1/2 phosphorylation
- effect on LPS-induced cytokine release [2]: inhibited LPS-induced cytokine release

- binding response to ODN2006 [5]: no such response
Compound: LQTLDLRDNALTTIHFIPSIPD [URP, unrelated peptide derived from LRR14 of human TLR5, used as negative control]
- effect of peptide alone on p65 activation [3]: no effect
- mean fluorescence intensity (MFI) produced by FAM-2006 within the cells [4]: no such effect
- effect of peptide alone on TNF-α and IL-6 release [6]: no influence on cytokines release

Compound: kukoamine B
- effect on CpG ODN-induced cytokine release [7]: inhibitors of CpG ODN-induced cytokine release
- effect on proinflammatory cytokines [7]: inhibited proinflammatory cytokines
- effect on IκBα phosphorylation and NF-κB activation [8]: inhibitors of IκBα phosphorylation and NF-κB activation
